Experimental data reported in US20090041888A1, “USE OF FORMULATED DIETS PROVIDING IMPROVED DIGESTION IN FISH” (SOUTHERN ILLINOIS UNIVERSITY, priority 2005, published 2009).

How the values were obtained:
[1] = system: hybrid striped bass (Morone chrysops X M. saxatilis); test: Growth and feed efficiency trial of practical diets supplemented with a non-nutritive emulsifier; type: in vivo; details: for FCR (feed conversion ratio) / Weight Gain (%): 28 days, initial weight 15 g; for Weight Gain (%): fed daily to satiation
Description: The present example provides details of experiments conducted to evaluate and quantify the effects of a non-nutritive emulsifier upon the growth and feed efficiency of phase-I hybrid striped bass (Morone chrysops×M. saxatilis). Tween-80® (provided as a liquid supplement) was incorporated into practical diets formulated to meet, or exceed, the known nutrient requirements of hybrid striped bass. Diets were formulated at Southern Illinois University using MIXIT 3 WIN (Agricultural Software Consultants, Inc., San Diego) and manufactured as cold pressed pellets.
Fish were stocked at a density of 15 fish per tank. Four practical diets were formulated to meet or exceed the known dietary requirements of juvenile hybrid striped bass. Each diet was supplemented with one of four concentrations of emulsifier providing dietary treatments of 0, 0.5, 1.0, and 2.0% Tween-80®, respectively. Fish were fed daily to satiation and feed consumption was monitored weekly. After 4 weeks, all fish in each tank were weighed to determine growth. Feed consumption was used to calculate feed conversion ratio (g feed:g weight gain).

[2] = system: juvenile sunshine bass Morone chrysops×M. saxatilis; test: Gastric residuum stratification trial with pelleted diets with varied levels of lecithin inclusion; type: in vivo; details: 2% BWD meal, 4.5 h post-prandial
Description: Residuum appearance: Nine pellet trained sub-adult spotted bass (mean weight=150 grams) were maintained in isolation in 37.8 L glass aquariums for seven days. During days 1-5, the bass were hand-fed to satiation once daily with either a semi-purified pellet diet (See Table 2), live paper shell crayfish (Orconectes immunis), or live fathead minnows (Pimephales promelas). Three bass were given each dietary treatment. Crayfish and minnows were maintained on the same pelleted diet as the bass and fed to apparent satiation two times daily. On Day 6, food was withheld to allow complete evacuation of gastric contents. On Day 7, the bass were fed that same food as during Days 1-5, at a rate of approximately 2% of their body weight (dry weight of feed/wet weight of bass). Post-prandially (4.5 hours) the bass were dispatched with blunt trauma to the head before immersion in liquid nitrogen until frozen solid (approx. 2 mins.). The bass were stored frozen until the residuum was removed by dissection. The position of the pyloric sphincter was noted relative to the observed strata. Representative residua were photographed. Residuum strata were separated using a razor blade for determination of proximate composition.
Juvenile sunshine bass Morone chrysops×M. saxatilis (n=15) were stocked individually into 110 L tanks and acclimated for a period of five days. […]

[3] = juvenile hybrid striped bass, practical diets

For `CCCCCCCC/C=C\CCCCCCCC(=O)OCCOCC(OCCO)C1OCC(OCCO)C1OCCO` (stereo not shown) [Tween-80], the “FCR (feed conversion ratio)” value ([1]; 0.5% Tween-80 in diet) was 1.21 g feed:g gain, the “Weight Gain (%)” value ([1]; 0.5% Tween-80 in diet) was 118% and the “FCR (feed conversion ratio)” value ([1]; 1.0% Tween-80 in diet) was 1.16 g feed:g gain. For the same compound, the “Weight Gain (%)” value ([1]; 1.0% Tween-80 in diet) was 140%, the “FCR (feed conversion ratio)” value ([1]; 2.0% Tween-80 in diet) was 1.23 g feed:g gain and the “Weight Gain (%)” value ([1]; 2.0% Tween-80 in diet) was 125%. For the same compound, the “feed conversion compared to fish fed a control diet void of Tween-80” value [1, 3] was “improved” and the “weight gain compared to fish fed a control diet void of Tween-80” value [1, 3] was “improved”.
With lecithin (phosphatidyl choline) the “stratification of the gastric residuum” value ([2]; lecithin inclusion rates of 0.25, 0.50, 1.00 and 2.00% of pellet weight) was “reduce stratification of the gastric residuum” and the “amount of post-prandial water intake into the gastric residuum” value ([2]; lecithin inclusion rates of 0.50, 1.00 and 2.00%) was “reduce the amount of post-prandial water intake”.
